Source: US8129521B2, “One pot synthesis of tetrazole derivatives of rapamycin” (Abbott Laboratories, priority 2005, dated 2012)

Experiments:
Assay type in all cases: physicochemical
[1] = Stability of zotarolimus on storage (potency over time, no anti-oxidant)
Experimental: Several lots of zotarolimus prepared by the one-pot methods lost significant potency over time. The potency loss was higher at increased temperature, but there was no apparent change in the impurity profile. Table 2 presents the potency of a lot of zotarolimus at various time intervals and temperature conditions. […] This loss was exacerbated in a sealed container when held at 40° C.—from 96.0% to 37.4% over just two months.

[2] = Zotarolimus stability with various concentrations of BHT
Experimental: A stability study was carried out to prevent this oxidation using phenolic anti-oxidants and identified BHT as a suitable compound. Tables 3 and 4 present stability data using BHT at various concentrations (% represented w/w) and temperatures.

[3] = Equilibration studies of pyran and oxepane forms of zotarolimus without buffer (acetonitrile/water, C-18 HPLC); settings: non-buffered, 66% acetonitrile in water
Experimental: Studies were also carried out under non-buffered conditions in a solvent mixture of acetonitrile/water. Multiple injections of zotarolimus were performed on a C-18 Altima column (Alltech Associates, Inc.; Deerfield, Ill.) using 66% acetonitrile in water in a non-buffered media. The pyran and oxepane forms were collected. These forms were re-injected on C-18 column to study the equilibrium ratio at various intervals. […] These observations confirmed that zotarolimus exists in an equilibrium mixture of […] pyran (1) vs. oxepane (2) forms.

potency ([1]; storage 5° C. (sealed), 1 month after synthesis): 95.0%
potency ([1]; storage 5° C. (sealed), 2 months after synthesis): 95.4%
potency ([1]; storage 5° C. (sealed), 2 weeks after synthesis): 98.2%
potency ([1]; storage 5° C. (sealed), 3 months after synthesis): 95.1%
potency ([1]; storage 5° C. (sealed), Initial): 95.7%
potency ([1]; storage 25° C. (sealed), 1 month after synthesis): 88.8%
potency ([1]; storage 25° C. (sealed), 2 months after synthesis): 81.6%
potency ([1]; storage 25° C. (sealed), 2 weeks after synthesis): 95.7%
potency ([1]; storage 25° C. (sealed), 3 months after synthesis): 69.8%
potency ([1]; storage 25° C. (sealed), Initial): 95.1%
potency ([1]; storage 25° C. (unsealed), 1 month after synthesis): 91.6%
potency ([1]; storage 25° C. (unsealed), 2 months after synthesis): 87.1%
potency ([1]; storage 25° C. (unsealed), 2 weeks after synthesis): 98.0%
potency ([1]; storage 25° C. (unsealed), 3 months after synthesis): 75.5%
potency ([1]; storage 25° C. (unsealed), Initial): 95.5%
potency ([1]; storage 40° C. (sealed), 1 month after synthesis): 61.9%
potency ([1]; storage 40° C. (sealed), 2 months after synthesis): 37.4%
potency ([1]; storage 40° C. (sealed), 2 weeks after synthesis): 81.1%
potency ([1]; storage 40° C. (sealed), Initial): 96%
stability at room temperature ([1]; without anti-oxidant): unstable at room temperature
potency ([2]; 4° C., BHT 0.0%, 0 weeks): 97.2%
potency ([2]; 4° C., BHT 0.0%, 2 weeks): 95.2%
potency ([2]; 4° C., BHT 0.0%, 4 weeks): 96.4%
potency ([2]; 4° C., BHT 0.0%, 6 weeks): 96.6%
potency ([2]; 4° C., BHT 0.0%, 8 weeks): 97.5%
potency ([2]; 4° C., BHT 0.0%, 12 weeks): 95.9%
potency ([2]; 4° C., BHT 0.1%, 0 weeks): 96.7%
potency ([2]; 4° C., BHT 0.1%, 2 weeks): 96.7%
potency ([2]; 4° C., BHT 0.1%, 4 weeks): 97.3%
potency ([2]; 4° C., BHT 0.1%, 6 weeks): 96.8%
potency ([2]; 4° C., BHT 0.1%, 8 weeks): 96.9%
potency ([2]; 4° C., BHT 0.1%, 12 weeks): 96.8%
potency ([2]; 4° C., BHT 0.2%, 0 weeks): 96.3%
potency ([2]; 4° C., BHT 0.2%, 2 weeks): 96.7%
potency ([2]; 4° C., BHT 0.2%, 4 weeks): 97.5%
potency ([2]; 4° C., BHT 0.2%, 6 weeks): 96.9%
potency ([2]; 4° C., BHT 0.2%, 8 weeks): 96.9%
potency ([2]; 4° C., BHT 0.2%, 12 weeks): 96.8%
potency ([2]; 4° C., BHT 0.5%, 0 weeks): 96.5%
potency ([2]; 4° C., BHT 0.5%, 2 weeks): 96.5%
potency ([2]; 4° C., BHT 0.5%, 4 weeks): 96.2%
potency ([2]; 4° C., BHT 0.5%, 6 weeks): 95.7%
potency ([2]; 4° C., BHT 0.5%, 8 weeks): 96.9%
potency ([2]; 4° C., BHT 1.0%, 0 weeks): 95.9%
potency ([2]; 4° C., BHT 1.0%, 2 weeks): 96.3%
potency ([2]; 4° C., BHT 1.0%, 4 weeks): 96.6%
potency ([2]; 4° C., BHT 1.0%, 6 weeks): 96.1%
potency ([2]; 4° C., BHT 1.0%, 8 weeks): 96.9%
potency ([2]; 4° C., BHT 1.0%, 12 weeks): 95.5%
potency ([2]; 40° C., BHT (w/w) 0.1%, 0 weeks): 96.7%
potency ([2]; 40° C., BHT (w/w) 0.1%, 2 weeks): 96.5%
potency ([2]; 40° C., BHT (w/w) 0.1%, 4 weeks): 96.9%
potency ([2]; 40° C., BHT (w/w) 0.1%, 6 weeks): 96.1%
potency ([2]; 40° C., BHT (w/w) 0.1%, 8 weeks): 96.2%
potency ([2]; 40° C., BHT (w/w) 0.1%, 12 weeks): 95.6%
potency ([2]; 40° C., BHT (w/w) 0.2%, 0 weeks): 96.3%
potency ([2]; 40° C., BHT (w/w) 0.2%, 2 weeks): 96.6%
potency ([2]; 40° C., BHT (w/w) 0.2%, 4 weeks): 97.2%
potency ([2]; 40° C., BHT (w/w) 0.2%, 6 weeks): 97.1%
potency ([2]; 40° C., BHT (w/w) 0.2%, 8 weeks): 97.0%
potency ([2]; 40° C., BHT (w/w) 0.5%, 0 weeks): 96.5%
potency ([2]; 40° C., BHT (w/w) 0.5%, 2 weeks): 96.1%
potency ([2]; 40° C., BHT (w/w) 0.5%, 4 weeks): 96.4%
potency ([2]; 40° C., BHT (w/w) 0.5%, 6 weeks): 95.7%
potency ([2]; 40° C., BHT (w/w) 0.5%, 8 weeks): 96.1%
potency ([2]; 40° C., BHT (w/w) 0.5%, 12 weeks): 95.9%
potency ([2]; 40° C., BHT (w/w) 1.0%, 0 weeks): 95.9%
potency ([2]; 40° C., BHT (w/w) 1.0%, 2 weeks): 95.4%
potency ([2]; 40° C., BHT (w/w) 1.0%, 4 weeks): 96.4%
potency ([2]; 40° C., BHT (w/w) 1.0%, 6 weeks): 95.6%
potency ([2]; 40° C., BHT (w/w) 1.0%, 8 weeks): 96.5%
potency ([2]; 40° C., BHT (w/w) 1.0%, 12 weeks): 95.8%
time to complete equilibration between two isomers [3]: 7 to 8 h
SMILES: CO[C@H]1C[C@@H]2CC[C@@H](C)[C@@](O)(O2)C(=O)C(=O)N2CCCC[C@H]2C(=O)O[C@H]([C@H](C)C[C@@H]2CC[C@H](n3cnnn3)[C@H](OC)C2)CC(=O)[C@H](C)/C=C(\C)[C@@H](O)[C@@H](OC)C(=O)[C@H](C)C[C@H](C)/C=C/C=C/C=C/1C [zotarolimus, 40-epi-(1-tetrazolyl)-rapamycin]
